Laboratory results published in patent US5554608A, “Inhibition of hair growth” (priority 1994, dated 1996).

Columns and labels:
flank organ hair growth = experiment: Golden Syrian hamster assay (flank organ hair growth, topical); assay type: in vivo; settings: for Hair Mass (mean ± SEM) Treated: treated flank organ; for % Inhibition (of hair growth): vs vehicle-treated side, mean ± SEM
From the text: Male intact Golden Syrian hamsters are considered acceptable models for human beard hair growth in that they display oval shaped flank organs, one on each side, each about 8 mm. in major diameter, which grow thick black and coarse hair similar to human beard hair. These organs produce hair in response to androgens in the hamster. To evaluate the effectiveness of a particular PKC inhibitor, the flank organs of each of a group of hamsters are depilated by applying a thioglycolate based chemical depilatory (Surgex). To one organ of each animal 10-25 μl. of vehicle alone once a day is applied, while to the other organ of each animal an equal amount of vehicle containing a PKC inhibitor is applied. After thirteen applications (one application per day for five days a week), the flank organs are shaved and the amount of recovered hair (hair mass) from each is weighed. Percent-reduction of hair growth is calculated by subtracting the hair mass (mg) value of the test compound treated side from the hair mass value of the vehicle treated side; the delta value obtained is then divided by the hair mass value of the vehicle treated side, and the resultant number is multiplied by 100.
The above-described assay will be referred to herein as the "Golden Syrian hamster" assay.

PKC = PKC activity assay in flank organ hair follicle homogenate (32P phosphorylation of acetylated-myelin basic protein); assay type: biochemical, Golden Syrian hamster
Method: PKC activity was assayed in hair follicles isolated from flank organs using a commercial assay kit obtained from GIBCO BRL (Gaithersburg, Md.). The assay is based on the phosphorylation (incorporation of ^32 -P into) of acetylated-myelin basic protein. After isolation, the flank organ hair follicles were washed in phosphate-buffered saline and homogenized in a buffer containing 20 mM Tris, pH 7.5, 0.5 mM EDTA, 0.5% Triton X-100, 10 mM β-mercaptoethanol, and 25 μg/each of the protease inhibitors aprotinin and leupeptin. The hair follicle homogenate was added to the PKC reaction mixture at a final concentration of 10-20 μg/assay. The assay also included buffer, H2 O, phospholipid. The assay was performed in the presence or absence of select PKC inhibitors. The reaction mixture volume was 50 μl, the ^32 P-ATP substrate was added in a volume of 10 μl. The reaction proceeded at 32° for 15 minutes, whereupon a 16.3 μL aliquot was removed from the reaction mixture and spotted onto a paper filter. Filters were washed twice in 1% phosphoric acid with gentle shaking for 5 minutes. Filters were then washed twice in H2 O and placed in scintillation vials. ^32 P-Incorporation, a measure of the enzyme activity, was determined using standard liquid scintillation techniques.

[1] = dose 10% in vehicle A, thirteen applications, pH differs per compound (4.0-8.5)
[2] = dose 7.5% in vehicle B, pH 7.5, thirteen applications
[3] = dose 10% in vehicle C, pH 5.5, thirteen applications

Compound	Hair Mass (mean ± SEM) Treated (flank organ hair growth; [1])	% Inhibition (of hair growth) (flank organ hair growth; [1]) [%]	further results
CCCCCCCCCCCCCCCC(=O)OC[C@H](O)[C@H]1OC(=O)C(O)=C1O [L-Ascorbic acid 6-palmitate]	1.48 ± .14 mg	46 ± 5	
CC1CNCCN1S(=O)(=O)c1cccc2cnccc12 (stereo not drawn) [H-7, 1(5-isoquinolinylsulfonyl)-2-methylpiperazine]	0.81 ± .08 mg	54 ± 3	inhibition of PKC activity (PKC; at 200 μM): 86%
CN(C)CCCN1c2ccccc2CCc2ccccc21 [Imipramine]	0.94 ± .18 mg	38 ± 5	
CC1(C)[C@@H](O)CC[C@]2(C)[C@H]3C(=O)C=C4[C@@H]5C[C@@](C)(C(=O)O)CC[C@]5(C)CC[C@@]4(C)[C@]3(C)CC[C@@H]12 [18β-Glycyrrhetinic acid]			Hair Mass (mean ± SEM) Treated (flank organ hair growth; [2]): 1.07 ± .10 mg; % Inhibition (of hair growth) (flank organ hair growth; [2]): 44 ± 6%; inhibition of PKC activity (PKC; at 500 μM): 52%
CC1(C)[C@@H](O[C@H]2O[C@H](C(=O)O)[C@@H](O)[C@H](O)[C@H]2O[C@@H]2O[C@H](C(=O)O)[C@@H](O)[C@H](O)[C@H]2O)CC[C@]2(C)[C@H]3C(=O)C=C4[C@@H]5C[C@@](C)(C(=O)O)CC[C@]5(C)CC[C@@]4(C)[C@]3(C)CC[C@@H]12 [Glycyrrhetinic acid glycoside]	0.94 ± .17 mg	46 ± 10	inhibition of PKC activity (PKC; at 200 μM): ~100%
COc1ccc(CCN(C)CCCC(C#N)(c2ccc(OC)c(OC)c2)C(C)C)cc1OC (stereo not drawn) [Verapamil]	0.43 ± .05 mg	69 ± 5	
Cc1ccc(N(CC2=NCCN2)c2cccc(O)c2)cc1 [Phentolamine]	1.61 ± .22 mg	19 ± 9	
COc1cc(/C=C/C(=O)CC(=O)/C=C/c2ccc(O)c(OC)c2)ccc1O [Curcumin]			Hair Mass (mean ± SEM) Treated (flank organ hair growth; [3]): 0.55 ± .11 mg; % Inhibition (of hair growth) (flank organ hair growth; [3]): 68 ± 5%
CSc1ccc2c(c1)N(CCC1CCCCN1C)c1ccccc1S2 (stereo not drawn) [Thioridazine]	0.74 ± .07 mg	68 ± 4	
CN1CCN(CCCN2c3ccccc3Sc3ccc(C(F)(F)F)cc32)CC1 [Trifluoperizine]	1.03 ± .16 mg	56 ± 6	inhibition of PKC activity (PKC; at 500 μM): 42%
